From article PMC11217338 (Frontiers in Endocrinology, 2024)

Target: T1, rat PXR (rPXR) (Rattus norvegicus, UniProt Q9R1A7)
T1 construct: gene Nr1i2
T1 sequence (Q9R1A7 143-431 limits assumed): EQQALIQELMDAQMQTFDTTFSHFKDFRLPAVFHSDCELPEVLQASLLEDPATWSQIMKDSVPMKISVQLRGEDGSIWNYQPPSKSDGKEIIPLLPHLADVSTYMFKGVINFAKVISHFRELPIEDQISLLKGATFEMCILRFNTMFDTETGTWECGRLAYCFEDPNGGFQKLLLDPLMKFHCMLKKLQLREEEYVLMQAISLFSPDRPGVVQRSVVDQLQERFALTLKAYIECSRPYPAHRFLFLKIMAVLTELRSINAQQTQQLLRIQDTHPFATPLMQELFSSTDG
Test: GAL4-LBD luciferase reporter assay in HepG2 cells, […] CBD
Format: cell-based

C=C(C)[C@@H]1CCC(C)=C[C@H]1c1c(O)cc(CCCCC)cc1O [CBD, Cannabidiol]
GAL4-LBD luciferase reporter assay in HepG2 cells, 10 μM CBD: Except for PXRs, CBD had little effect on activation of the other tested nuclear receptors
